Counter-ions that a name gives are not always drawn. Like-named read-outs stand apart in the source and are kept apart here.
Molecular target: T1, hNaV1.7 (Homo sapiens, UniProt Q15858)
T1 construct: expressed in transfected cells; host or cells: HEK293
Assay: QPatch NaV1.7 assay
Type: cell-based
Settings: HEK293-hNaV1.7 cells, QPatch16x
Method: The compounds of the invention were tested in a QPatch NaV1.7 assay.
HEK293-hNaV1.7 cells were grown in DMEM-F12+10% FBS culture media at 37° C. At a confluency of 50-70% cells were dissociated from culture flasks & triturated to ensure unicellular cell suspension; cell density was measured & adjusted to 2-3×10^6 cells/ml. Recordings were obtained using QPatch16x. The external solution was (in mM): NaCl, 128; KCl, 5; MgCl2, 2; CaCl2, 2; Glucose, 30; HEPES, 15; pH 7.3, 305-315 mOsm. Following seal formation and whole-cell access using internal solution (containing in mM: CsF, 135; EGTA/CsOH, 1/5; HEPES 10; NaCl, 10; pH 7.3, 310-320mOsM), voltage pulse protocols were applied. Initially a steady state inactivation voltage protocol was used to determine the half-maximal voltage for steady state inactivation (V1/2 SSI). Two holding voltages were used to determine test drug inhibition: −90 mV, where most of the channels are in a closed state; and V1/2 SSI, where half of the channels are inactivated. Currents were elicited every 10 seconds by stepping to a membrane potential of 0 mV for 20 ms. Four-point cumulative concentration responses were derived by determining the peak current amplitude at each concentration of test drug over 120 second application. Curves were fitted with the Hill equation yielding pIC50 values at −90 mV and V1/2 SSI holding potentials.

[1] = holding voltage V1/2 SSI, where half of the channels are inactivated, read-out: QP Nav1.7 SSI vhalf pIC50 (converted)
[2] = holding voltage −90 mV, where most of the channels are in a closed state, read-out: QP Nav1.7 - 90 mV pIC50 (converted)

T1 sequence (Q15858 whole entry): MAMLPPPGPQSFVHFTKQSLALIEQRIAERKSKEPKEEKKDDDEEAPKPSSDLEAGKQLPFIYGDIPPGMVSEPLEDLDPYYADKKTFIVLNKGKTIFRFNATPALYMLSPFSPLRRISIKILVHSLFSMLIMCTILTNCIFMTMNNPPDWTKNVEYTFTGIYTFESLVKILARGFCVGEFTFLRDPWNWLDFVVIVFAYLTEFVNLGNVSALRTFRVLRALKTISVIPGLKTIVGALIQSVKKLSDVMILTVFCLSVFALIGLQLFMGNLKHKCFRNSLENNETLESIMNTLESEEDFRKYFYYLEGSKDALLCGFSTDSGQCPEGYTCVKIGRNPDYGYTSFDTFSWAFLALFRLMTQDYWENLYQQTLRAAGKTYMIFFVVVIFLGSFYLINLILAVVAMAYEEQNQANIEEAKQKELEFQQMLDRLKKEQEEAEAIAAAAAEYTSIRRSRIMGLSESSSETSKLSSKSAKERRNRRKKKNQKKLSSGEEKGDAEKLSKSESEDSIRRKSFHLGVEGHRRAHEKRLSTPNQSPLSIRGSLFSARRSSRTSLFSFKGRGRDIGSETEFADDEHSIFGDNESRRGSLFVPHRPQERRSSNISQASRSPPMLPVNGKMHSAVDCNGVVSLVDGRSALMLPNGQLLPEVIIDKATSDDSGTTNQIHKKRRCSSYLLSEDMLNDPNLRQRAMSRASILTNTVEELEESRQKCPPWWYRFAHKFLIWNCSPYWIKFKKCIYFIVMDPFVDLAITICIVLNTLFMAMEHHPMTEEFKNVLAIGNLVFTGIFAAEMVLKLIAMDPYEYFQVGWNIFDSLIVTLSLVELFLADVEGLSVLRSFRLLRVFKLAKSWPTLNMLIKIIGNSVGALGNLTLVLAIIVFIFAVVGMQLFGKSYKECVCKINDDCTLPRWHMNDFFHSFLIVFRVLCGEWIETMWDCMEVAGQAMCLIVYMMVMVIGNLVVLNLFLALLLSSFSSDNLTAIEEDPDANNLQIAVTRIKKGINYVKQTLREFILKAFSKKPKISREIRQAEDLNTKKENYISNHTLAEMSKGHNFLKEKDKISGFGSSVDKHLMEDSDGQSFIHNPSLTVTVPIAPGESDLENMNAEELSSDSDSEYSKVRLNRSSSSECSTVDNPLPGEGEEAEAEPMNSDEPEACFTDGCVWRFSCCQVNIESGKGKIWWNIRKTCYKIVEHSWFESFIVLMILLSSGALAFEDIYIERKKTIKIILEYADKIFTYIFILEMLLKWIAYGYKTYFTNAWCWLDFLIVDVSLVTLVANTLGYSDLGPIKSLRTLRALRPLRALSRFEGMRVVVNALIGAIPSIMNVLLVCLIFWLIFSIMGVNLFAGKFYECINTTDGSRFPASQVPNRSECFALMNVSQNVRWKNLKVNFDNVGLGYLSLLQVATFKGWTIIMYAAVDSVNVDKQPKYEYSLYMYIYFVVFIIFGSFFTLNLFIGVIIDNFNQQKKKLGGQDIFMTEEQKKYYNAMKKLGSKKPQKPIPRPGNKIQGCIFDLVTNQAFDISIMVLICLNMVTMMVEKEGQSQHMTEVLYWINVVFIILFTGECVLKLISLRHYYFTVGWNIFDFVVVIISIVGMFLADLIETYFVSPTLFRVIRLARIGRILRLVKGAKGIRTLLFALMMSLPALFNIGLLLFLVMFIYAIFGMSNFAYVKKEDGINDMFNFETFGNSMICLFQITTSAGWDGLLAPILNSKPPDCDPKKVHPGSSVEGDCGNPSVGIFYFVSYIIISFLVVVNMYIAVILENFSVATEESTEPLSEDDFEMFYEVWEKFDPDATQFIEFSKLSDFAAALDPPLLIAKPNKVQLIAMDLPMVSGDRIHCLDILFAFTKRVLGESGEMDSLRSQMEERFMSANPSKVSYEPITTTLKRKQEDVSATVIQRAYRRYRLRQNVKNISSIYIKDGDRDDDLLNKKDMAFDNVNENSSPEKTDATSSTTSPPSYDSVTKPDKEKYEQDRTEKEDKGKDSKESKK

IC50 [1] [µM]	IC50 [2] [µM]	SMILES
20	316	Cc1cc(-c2ccc(OC(F)(F)F)cc2)nc([C@H]2CC[C@]3(CCN(C)C3=O)N2)n1 [Example 30, (2R,5R)-7-Methyl-2-[4-methyl-6-[4-(trifluoromethoxy)phenyl]pyrimidin-2-yl]-1,7-diazaspiro[4.4]nonan-6-one hydrochloride]
2.51	39.8	Cc1cc(-c2cc(OC(F)(F)F)ccc2F)nc([C@H]2CC[C@@]3(CCN(C)C3=O)N2)n1 [Example 32, (2R,5S)-2-[4-[2-Fluoro-5-(trifluoromethoxy)phenyl]-6-methyl-pyrimidin-2-yl]-7-methyl-1,7-diazaspiro[4.4]nonan-6-one hydrochloride]
39.8	251	CN1CC[C@]2(CC[C@H](c3nccc(-c4ccc(C(F)(F)F)cc4)n3)N2)C1=O [Example 4, (2R,5R)-7-Methyl-2-[4-[4-(trifluoromethyl)-phenyl]-pyrimidin-2-yl]-1,7-diazaspiro[4.4]nonan-6-one hydrochloride]
10	63.1	CCOc1ccc(F)c(-c2ccnc([C@H]3CC[C@@]4(CCN(C)C4=O)N3)n2)c1 [Example 17, (2R,5S)-2-[4-(5-Ethoxy-2-fluoro-phenyl)pyrimidin-2-yl]-7-methyl-1,7-diazaspiro[4.4]nonan-6-one hydrochloride]
1.58	12.6	CCOc1ccc(F)c(-c2cc(C)nc([C@H]3CC[C@]4(CCN(C)C4=O)N3)n2)c1 [Example 9, (2R,5R)-2-[4-(5-Ethoxy-2-fluoro-phenyl)-6-methyl-pyrimidin-2-yl]-7-methyl-1,7-diazaspiro[4.4]nonan-6-one hydrochloride]
31.6	158	Cc1cc(-c2ccc(C(F)(F)F)cc2)nc([C@@H]2CC[C@]3(CCNC3=O)N2)n1 [Example 40, (2S,5R)-2-[4-Methyl-6-[4-(trifluoromethyl)phenyl]-pyrimidin-2-yl]-1,7-diazaspiro[4.4]nonan-6-one hydrochloride]
10	63.1	Cc1cc(-c2ccc(OC(F)(F)F)cc2)nc([C@H]2CC[C@@]3(CCN(C)C3=O)N2)n1 [Example 27, (2R,5S)-7-Methyl-2-[4-methyl-6-[4-(trifluoromethoxy)phenyl]pyrimidin-2-yl]-1,7-diazaspiro[4.4]nonan-6-one hydrochloride]
63.1	7940	Cc1cc(-c2ccc(C(F)(F)F)cc2)nc([C@@H]2CC[C@@]3(CCN(C)C3=O)N2)n1 (single isomer, unassigned) [Example 22, hydrochloride]
20	158	CC(C)Oc1ccc(-c2ccnc([C@@H]3CC[C@]4(CCN(C)C4=O)N3)n2)cc1 [Example 24, (2S,5R)-2-[4-(4-Isopropoxyphenyl)pyrimidin-2-yl]-7-methyl-1,7-diazaspiro[4.4]nonan-6-one hydrochloride]
63.1	398	CN1CC[C@@]2(CC[C@@H](c3nccc(-c4ccc(C(F)(F)F)cc4)n3)N2)C1=O [Example 2, (2S,5S)-7-Methyl-2-[4-[4-(trifluoromethyl)phenyl]pyrimidin-2-yl]-1,7-diazaspiro[4.4]nonan-6-one hydrochloride]
63.1	1580	CC(C)Oc1ccc(-c2ccnc([C@H]3CC[C@]4(CCN(C)C4=O)N3)n2)cc1 [Example 23, (2R,5R)-2-[4-(4-Isopropoxyphenyl)pyrimidin-2-yl]-7-methyl-1,7-diazaspiro[4.4]nonan-6-one hydrochloride]
20	100	Cc1cc(-c2ccc(C(F)(F)F)cc2)nc([C@@H]2CC[C@]3(CC(C)(C)NC3=O)N2)n1 [Example 45, (2S,5R)-8,8-Dimethyl-2-[4-methyl-6-[4-(trifluoromethyl)phenyl]pyrimidin-2-yl]-1,7-diazaspiro[4.4]nonan-6-one hydrochloride]
79.4	316	Cc1cc(-c2ccc(C(F)(F)F)cc2)nc([C@H]2CC[C@]3(CCN(C)C3=O)N2)n1 [Example 6, (2R,5R)-7-Methyl-2-[4-methyl-6-[4-(trifluoromethyl)phenyl]pyrimidin-2-yl]-1,7-diazaspiro[4.4]nonan-6-one hydrochloride]
50.1	631	CC(C)Oc1ccc(-c2ccnc([C@@H]3CC[C@@]4(CCN(C)C4=O)N3)n2)cc1 [Example 26, (2S,5S)-2-[4-(4-Isopropoxyphenyl)pyrimidin-2-yl]-7-methyl-1,7-diazaspiro[4.4]nonan-6-one hydrochloride]
20	200	CN1CC[C@@]2(CC[C@@H](c3nccc(-c4cccc(OC(F)(F)F)c4)n3)N2)C1=O [Example 19, (2S,5S)-7-Methyl-2-[4-[3-(trifluoromethoxy)phenyl]pyrimidin-2-yl]-1,7-diazaspiro[4.4]nonan-6-one hydrochloride]
2.51	25.1	Cc1cc(-c2ccc(C(F)(F)F)cc2)nc([C@@H]2CC[C@@]3(CCNC3=O)N2)n1 [Example 41, (2S,5S)-2-[4-Methyl-6-[4(trifluoromethyl)-phenyl]-pyrimidin-2-yl]-1,7-diazaspiro[4.4]nonan-6-one hydrochloride]
3.16	100	Cc1cc(-c2cc(OC(F)(F)F)ccc2F)nc([C@@H]2CC[C@@]3(CCN(C)C3=O)N2)n1 [Example 31, (2S,5S)-2-[4-[2-Fluoro-5-(trifluoromethoxy)phenyl]-6-methyl-pyrimidin-2-yl]-7-methyl-1,7-diazaspiro[4.4]nonan-6-one hydrochloride]
12.6	126	CCOc1ccc(F)c(-c2ccnc([C@@H]3CC[C@]4(CCN(C)C4=O)N3)n2)c1 [Example 15, (2S,5R)-2-[4-(5-Ethoxy-2-fluoro-phenyl)pyrimidin-2-yl]-7-methyl-1,7-diazaspiro[4.4]nonan-6-one hydrochloride]
7.94	79.4	Cc1cc(-c2cc(OC(F)(F)F)ccc2F)nc([C@@H]2CC[C@]3(CCN(C)C3=O)N2)n1 [Example 34, (2S,5R)-2-[4-[2-Fluoro-5-(trifluoromethoxy)phenyl]-6-methyl-pyrimidin-2-yl]-7-methyl-1,7-diazaspiro[4.4]nonan-6-one hydrochloride]
100	79.4	Cc1cc(-c2ccc(C(F)(F)F)cc2)nc([C@@H]2CC[C@]3(CCN(C)C3=O)N2)n1 [Example 5, (2S,5R)-7-Methyl-2-[4-methyl-6-[4-(trifluoromethyl)phenyl]pyrimidin-2-yl]-1,7-diazaspiro[4.4]nonan-6-one hydrochloride]
12.6	126	Cc1cc(-c2ccc(OC(F)(F)F)cc2)nc([C@@H]2CC[C@]3(CCN(C)C3=O)N2)n1 [Example 29, (2S,5R)-7-Methyl-2-[4-methyl-6-[4-(trifluoromethoxy)phenyl]pyrimidin-2-yl]-1,7-diazaspiro[4.4]nonan-6-one hydrochloride]
2	20	CCOc1ccc(F)c(-c2cc(C)nc([C@H]3CC[C@]4(CCCNC4=O)N3)n2)c1 [Example 12, hydrochloride]
7.94	50.1	CC(C)Oc1ccc(-c2ccnc([C@H]3CC[C@@]4(CCN(C)C4=O)N3)n2)cc1 [Example 25, (2R,5S)-2-[4-(4-Isopropoxyphenyl)pyrimidin-2-yl]-7-methyl-1,7-diazaspiro[4.4]nonan-6-one hydrochloride]
2	20	Cc1cc(-c2cc(OC(F)(F)F)ccc2F)nc([C@H]2CC[C@]3(CCN(C)C3=O)N2)n1 [Example 33, (2R,5R)-2-[4-[2-Fluoro-5-(trifluoromethoxy)phenyl]-6-methyl-pyrimidin-2-yl]-7-methyl-1,7-diazaspiro[4.4]nonan-6-one hydrochloride]
3.16	25.1	Cc1cc(-c2ccc(C(F)(F)F)cc2)nc([C@H]2CC[C@]3(CC(C)(C)NC3=O)N2)n1 [Example 46, (2R,5R)-8,8-Dimethyl-2-[4-methyl-6-[4-(trifluoromethyl)phenyl]pyrimidin-2-yl]-1,7-diazaspiro[4.4]nonan-6-one hydrochloride]
50.1	631	Cc1cc(-c2ccc(OC(F)(F)F)cc2)nc([C@@H]2CC[C@@]3(CCN(C)C3=O)N2)n1 [Example 28, (2S,5S)-7-Methyl-2-[4-methyl-6-[4-(trifluoromethoxy)phenyl]pyrimidin-2-yl]-1,7-diazaspiro[4.4]nonan-6-one hydrochloride]
39.8	158	Cc1cc(-c2ccc(C(F)(F)F)cc2)nc([C@@H]2CC[C@@]3(CC(C)(C)NC3=O)N2)n1 [Example 44, (2S,5S)-8,8-Dimethyl-2-[4-methyl-6-[4-(trifluoromethyl)phenyl]pyrimidin-2-yl]-1,7-diazaspiro[4.4]nonan-6-one hydrochloride]
1.58	7.94	CCOc1ccc(F)c(-c2cc(C)nc([C@@H]3CC[C@]4(CCCNC4=O)N3)n2)c1 [Example 13, hydrochloride]
